Assays:
[1] = pKa in 10% DEGMEE-water, determined spectrophotometrically (Table II); assay type: physicochemical; conditions: for pKa: spectrophotometric
[2] = Ion selectivity and sensitivity of larger cavity cryptand analogs
[3] = UV-VIS spectra of the cryptand in complexation with various ions (Table I); assay type: physicochemical
Protocol: (§1) The UV-VIS spectra of p-nitrophenylazophenol (1.1.0) cryptand in complexation with various ions, i.e. Na^+ K^+, and Li^+, were determined in 1 to 2×10^-4 M solutions of the cryptand in 2 to 50% volume to volume (v/v) DEGMEE in water. A 1×10^-2 M stock solution of the cryptand was prepared in DEGMEE. Typically, the solutions were prepared as follows: for the spectral characteristics in 10% v/v DEGMEE, 0.2 ml of the stock solution was added to 0.8 ml DEGMEE. The diluted cryptand was quantitatively transferred to 9.0 ml of the appropriate reagent and mixed. 1N HCl was used to obtain the acid form (HL) and 1M TMAOH for the base form of the cryptand which is designated in the following tables as L. Tne resulting solutions were scanned from 700 to 300 nm on a Beckman DU-8 spectrophotometer. The spectra of the cation complexes of p-nitrophenylazophenol (1.1.0) cryptand in 10% v/v DEGMEE/1M TMAOH were obtained by adding 0.02 ml LiCl, KCl, NaCl, all 1N to their respective cuvettes containing 2 ml of reagent and scanned from 700 to 300 nm.
Table I records the wavelength maxima and absorptivities of p-nitrophenylazophenol (1.1.0) cryptand when exposed to Na^+, K^+ and Li^+ ions in 10% v/v DEGMEE.

[4] = Effect of non-ionic surfactant on wavelength maxima and absorptivities (first Table IV); assay type: physicochemical; conditions: Brij-35 and Triton X-100 at 1% w/v; cryptand and its lithium complex
Excerpt: Non-ionic surfactants are known to interact with monoazo dyes producing a disturbance of the electronic spectrum.

[5] = Selectivity for Li^+ over Na^+ and other cations (slopes of response curves); conditions: sample to reagent ratio 1:40
Excerpt: By taking the ratio of the slope of the respective response curves, one obtains approximate selectivity of 4000:1 for Li^+ /Na^+.

[6] = Spectral response to lithium (analytical wavelength); assay type: physicochemical
Protocol: as §1

[7] = Effect of organic solvent (DEGMEE) concentration on sensitivity and selectivity; conditions: 2.5% DEGMEE
Protocol: as §1
However, high concentration of solvent also affects the selectivity; at 25% DEGMEE, interference by 140 mM Na^+ corresponds to 0.1 mM Li^+, which is not acceptable for clinical purposes. The selectivity requirements of the lithium assay are high, in certain cases where the concentration of lithium is near 0.1 mM, the molar ratio of Li^+ :Na^+ is about 1:1500. […]

[8] = Effect of pH on response to cations in 10% v/v DEGMEE (Table III); assay type: physicochemical
Protocol: as §1
A zwitterionic buffer CAPS was used (Table III).

[9] = 10% v/v DEGMEE, HL in 1N HCl, L and complexes in 1M TMAOH

## O=[N+]([O-])c1ccc(N=Nc2cc3c(O)c(c2)CCN2CCOCCOCCN(CCOCCOCC2)CC3)cc1 [(2.2.0) cryptand, reference compound]
[1]
  pKa: 11.1
[2]; effect of increased cavity size
  selectivity and sensitivity: more selective for potassium over sodium and lithium

## O=[N+]([O-])c1ccc(N=Nc2cc3c(O)c(c2)CCN2CCOCCN(CCOCC2)CC3)cc1 [HL]
[3]; [9]
  λmax 1: 494 nm
  λmax 2: 363 nm
[3]; absorptivity at λmax 1, 10% v/v DEGMEE
  ε 1: 8,800 M^-1 cm^-1
[3]; absorptivity at λmax 2, 10% v/v DEGMEE
  ε 2: 8,000 M^-1 cm^-1

## O=[N+]([O-])c1ccc(N=Nc2cc3c(O)c(c2)CCCN2CCOCCN(CCC3)CCOCC2)cc1 [extended (1.1.0) cryptand]
[1]
  pKa: 11.5
[2]; extraction mode
  response to lithium: very good response to lithium in the extraction mode

## O=[N+]([O-])c1ccc(N=Nc2cc3c(O)c(c2)CCN2CCOCCN(CCOCC2)CC3)cc1 [p-nitrophenylazophenol (1.1.0) cryptand]
[4]
  effect of surfactant on λmax and absorptivities: substantial bathochromic shift of the λmax and an increase in the absorptivities
[5]
  selectivity over sodium: almost total selectivity over sodium
[6]
  wavelength of decrease in absorbance with lithium: 600 nm
  wavelength of increase of the lithium complex: 534 nm
[7]
  reduction of response to lithium: 25%
[3]; acid form
  wavelength maxima and absorptivities of acid form: two wavelength maxima (Table I) of equivalent absorptivities
[8]
  shift and absorptivity change with pH: bathochromic shift with concurrent increase in absorptivity
[1]
  pKa compared with larger cavity analogs or usual: Higher than usual pKa
  pKa: 12.6

Source: patent US5187103A, “Colorimetric method and reagent for the assay of lithium in a test sample” (Miles Inc., priority 1991, dated 1993)
